Structures are written as SMILES.

The target of one experiment is T1, PDE4B1 (Homo sapiens, UniProt Q07343).
T1 construct: made in house; host or cells: SF21 insect cells (baculovirus; virus made in SF9 cells, pCR-Bac vector)
In words: Inhibition of PDE4 activity (PDE4B1, SPA assay). It counts as biochemical. To be noted: recombinant PDE4B1, 0.5 μM cAMP; read-out: PDE4B1 Inhibitory values measured as -logIC50 (converted). In outline:
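Baculovirus-expressed enzyme from SF21 cell 1000×g supernatant; substrate 0.5 μM [3H]cAMP in 20 mM Tris pH 7.4, 5 mM Mg2+, 0.1 mg/ml BSA, 10-20% conversion. 5 min preincubation at 37 °C, 15 min reaction, stopped by SPA beads with IBMX; IC50 by non-linear regression.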

The target of a further experiment is T2, human PDE5 (Homo sapiens, UniProt O76074).
T2 construct: from tissue; host or cells: human platelets from fresh donor blood (platelet lysate)
In words: Inhibition of PDE5 activity (platelet lysate, SPA assay). In kind it is biochemical. The following applies: 0.5 μM cGMP, read-out: PDE5 Inhibitory values measured as -logIC50 (converted). In outline:
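Human platelet lysate (10,000 g supernatant) served as PDE5 source, with 1 μM motapizone and 10 nM PDE2 inhibitor added, in Tris pH 7.4, 5 mM Mg2+, BSA. Substrate 0.5 μM [3H]cGMP, 10–20% conversion; 5 min preincubation then 15 min at 37 °C, stopped by SPA beads with IBMX. IC50 by non-linear regression.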

T1 sequence (Q07343 whole entry): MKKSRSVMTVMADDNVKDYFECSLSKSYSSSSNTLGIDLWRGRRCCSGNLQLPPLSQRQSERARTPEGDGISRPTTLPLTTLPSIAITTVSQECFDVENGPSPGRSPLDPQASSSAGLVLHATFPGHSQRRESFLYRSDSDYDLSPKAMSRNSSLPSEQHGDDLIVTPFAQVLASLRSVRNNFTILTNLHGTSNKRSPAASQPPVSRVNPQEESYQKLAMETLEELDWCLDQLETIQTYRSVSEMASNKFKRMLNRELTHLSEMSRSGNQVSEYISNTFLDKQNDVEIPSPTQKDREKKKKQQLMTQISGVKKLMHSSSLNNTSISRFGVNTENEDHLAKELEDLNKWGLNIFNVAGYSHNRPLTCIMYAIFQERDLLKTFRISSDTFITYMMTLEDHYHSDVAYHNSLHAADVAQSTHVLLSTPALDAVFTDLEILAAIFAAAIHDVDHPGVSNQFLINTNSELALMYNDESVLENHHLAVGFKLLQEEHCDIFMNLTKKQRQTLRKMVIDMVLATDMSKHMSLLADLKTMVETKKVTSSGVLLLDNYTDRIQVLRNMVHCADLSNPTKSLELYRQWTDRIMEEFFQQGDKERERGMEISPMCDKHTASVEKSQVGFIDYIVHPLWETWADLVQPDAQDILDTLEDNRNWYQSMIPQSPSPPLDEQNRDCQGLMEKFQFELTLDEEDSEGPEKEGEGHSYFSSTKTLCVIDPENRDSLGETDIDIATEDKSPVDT

Turning to `COc1ccc(C2=NN(C3CCN(C(=O)[C@@H](Cc4cccc(C)c4)NC(=O)c4c[nH]c5c(-c6c(OCC7CC7)ccc7c6OCO7)ncnc45)CC3)C(=O)[C@@H]3CCCC[C@H]23)cc1OC` [Example 20, 4-[5-(cyclopropylmethoxy)-1,3-benzodioxol-4-yl]-N-[(2R)-1-{4-[(4aS,8aR)-4-(3,4-dimethoxyphenyl)-1-oxo-4a,5,6,7,8,8a-hexahydrophthalazin-2(1H)-yl]piperidin-1-yl}-3-(3-methylphenyl)-1-oxopropan-2-yl]-5H-pyrrolo[3,2-d]pyrimidine-7-carboxamide], the values for the IC50 on PDE4B1 and at human PDE5 were 1 to 10 nM and less than 1 nM, respectively.

With `COc1ccc(C2=NN(C3CCN(C(=O)[C@@H](Cc4ccc(C)cc4)NC(=O)c4c[nH]c5c(-c6c(OCC7CC7)ccc7c6OCO7)ncnc45)CC3)C(=O)[C@@H]3CCCC[C@H]23)cc1OC` [Example 21, 4-[5-(cyclopropylmethoxy)-1,3-benzodioxol-4-yl]-N-[(2R)-1-{4-[(4aS,8aR)-4-(3,4-dimethoxyphenyl)-1-oxo-4a,5,6,7,8,8a-hexahydrophthalazin-2(1H)-yl]piperidin-1-yl}-3-(4-methylphenyl)-1-oxopropan-2-yl]-5H-pyrrolo[3,2-d]pyrimidine-7-carboxamide], the results for the IC50 at PDE4B1 and at human PDE5 were 1 to 10 nM and less than 1 nM, respectively.

With `COc1cc(OCC2CC2)c(-c2ncnc3c(C(=O)N[C@H](Cc4ccccc4)C(=O)N4CCC(N5N=C(c6ccc(OC)c(OC)c6)[C@H]6CCCC[C@H]6C5=O)CC4)c(C)[nH]c23)cc1F` [Example 22, 4-[2-(cyclopropylmethoxy)-5-fluoro-4-methoxyphenyl]-N-[(2R)-1-{4-[(4aS,8aR)-4-(3,4-dimethoxyphenyl)-1-oxo-4a,5,6,7,8,8a-hexahydrophthalazin-2(1H)-yl]piperidin-1-yl}-1-oxo-3-phenylpropan-2-yl]-6-methyl-5H-pyrrolo[3,2-d]pyrimidine-7-carboxamide], the IC50 at PDE4B1 and at human PDE5 was 1 to 10 nM throughout.

On to `COc1cc(OCC2CC2)c(-c2ncnc3c(C(=O)N[C@H](Cc4ccccc4)C(=O)N4CCC(N5N=C(c6ccc(OC)c(OC)c6)[C@H]6CCCC[C@H]6C5=O)CC4)c[nH]c23)cc1F` [Example 23, 4-[2-(cyclopropylmethoxy)-5-fluoro-4-methoxyphenyl]-N-[(2R)-1-{4-[(4aS,8aR)-4-(3,4-dimethoxyphenyl)-1-oxo-4a,5,6,7,8,8a-hexahydrophthalazin-2(1H)-yl]piperidin-1-yl}-1-oxo-3-phenylpropan-2-yl]-5H-pyrrolo[3,2-d]pyrimidine-7-carboxamide], for which the IC50 at PDE4B1 and on human PDE5 was 1 to 10 nM in each case.

For `COc1cc(-c2ncnc3c(C(=O)N[C@H](Cc4ccccc4)C(=O)N4CCC(N5N=C(c6ccc(OC)c(OC)c6)[C@H]6CCCC[C@H]6C5=O)CC4)c[nH]c23)c(OCC2CC2)cc1F` [Example 24, 4-[2-(cyclopropylmethoxy)-4-fluoro-5-methoxyphenyl]-N-[(2R)-1-{4-[(4aS,8aR)-4-(3,4-dimethoxyphenyl)-1-oxo-4a,5,6,7,8,8a-hexahydrophthalazin-2(1H)-yl]piperidin-1-yl}-1-oxo-3-phenylpropan-2-yl]-5H-pyrrolo[3,2-d]pyrimidine-7-carboxamide], the IC50 on PDE4B1 and on human PDE5 was 1 to 10 nM throughout.

On to `COc1ccc(C[C@H](NC(=O)c2c[nH]c3c(-c4c(OCC5CC5)ccc5c4OCO5)ncnc23)C(=O)N2CCC(N3N=C(c4ccc(OC)c(OC)c4)[C@H]4CCCC[C@H]4C3=O)CC2)cc1OC` [Example 25, 4-[5-(cyclopropylmethoxy)-1,3-benzodioxol-4-yl]-N-[(2S)-3-(3,4-dimethoxyphenyl)-1-{4-[(4aS,8aR)-4-(3,4-dimethoxyphenyl)-1-oxo-4a,5,6,7,8,8a-hexahydrophthalazin-2(1H)-yl]piperidin-1-yl}-1-oxopropan-2-yl]-5H-pyrrolo[3,2-d]pyrimidine-7-carboxamide], for which the IC50 at PDE4B1 and at human PDE5 was 1 to 10 nM each time.

On to `COc1ccc(C2=NN(C3CCN(C(=O)[C@@H](Cc4ccccc4)NC(=O)c4c(C)[nH]c5c(-c6c(OCC7CC7)ccc7c6OCO7)ncnc45)CC3)C(=O)[C@@H]3CCCC[C@H]23)cc1OC` [Example 26, 4-[5-(cyclopropylmethoxy)-1,3-benzodioxol-4-yl]-N-[(2R)-1-{4-[(4aS,8aR)-4-(3,4-dimethoxyphenyl)-1-oxo-4a,5,6,7,8,8a-hexahydrophthalazin-2(1H)-yl]piperidin-1-yl}-1-oxo-3-phenylpropan-2-yl]-6-methyl-5H-pyrrolo[3,2-d]pyrimidine-7-carboxamide], for which the IC50 on PDE4B1 was 1 to 10 nM; at human PDE5 it was less than 1 nM.

For the molecule `COc1ccc(C2=NN(C3CCN(C(=O)[C@@H](Cc4ccc(Cl)cc4)NC(=O)c4c[nH]c5c(-c6c(OCC7CC7)ccc7c6OCO7)ncnc45)CC3)C(=O)[C@@H]3CCCC[C@H]23)cc1OC` [Example 27, N-[(2R)-3-(4-chlorophenyl)-1-{4-[(4aS,8aR)-4-(3,4-dimethoxyphenyl)-1-oxo-4a,5,6,7,8,8a-hexahydrophthalazin-2(1H)-yl]piperidin-1-yl}-1-oxopropan-2-yl]-4-[5-(cyclopropylmethoxy)-1,3-benzodioxol-4-yl]-5H-pyrrolo[3,2-d]pyrimidine-7-carboxamide], the IC50 on PDE4B1 was 1 to 10 nM; at human PDE5, less than 1 nM.

`COc1ccc(C2=NN(C3CCN(C(=O)[C@@H](Cc4ccc(F)cc4)NC(=O)c4c[nH]c5c(-c6c(OCC7CC7)ccc7c6OCO7)ncnc45)CC3)C(=O)[C@@H]3CCCC[C@H]23)cc1OC` [Example 28, 4-[5-(cyclopropylmethoxy)-1,3-benzodioxol-4-yl]-N-[(2R)-1-{4-[(4aS,8aR)-4-(3,4-dimethoxyphenyl)-1-oxo-4a,5,6,7,8,8a-hexahydrophthalazin-2(1H)-yl]piperidin-1-yl}-3-(4-fluorophenyl)-1-oxopropan-2-yl]-5H-pyrrolo[3,2-d]pyrimidine-7-carboxamide]: the IC50 at PDE4B1 and on human PDE5 was less than 1 nM in each case.

In the case of `COc1ccc(C[C@@H](NC(=O)c2c[nH]c3c(-c4c(OCC5CC5)ccc5c4OCO5)ncnc23)C(=O)N2CCC(N3N=C(c4ccc(OC)c(OC)c4)[C@H]4CCCC[C@H]4C3=O)CC2)cc1` [Example 29, 4-[5-(cyclopropylmethoxy)-1,3-benzodioxol-4-yl]-N-[(2R)-1-{4-[(4aS,8aR)-4-(3,4-dimethoxyphenyl)-1-oxo-4a,5,6,7,8,8a-hexahydrophthalazin-2(1H)-yl]piperidin-1-yl}-3-(4-methoxyphenyl)-1-oxopropan-2-yl]-5H-pyrrolo[3,2-d]pyrimidine-7-carboxamide], the IC50 is 1 to 10 nM on PDE4B1 and less than 1 nM on human PDE5.

Take `COc1ccc(C2=NN(C3CCN(C(=O)[C@@H](Cc4cccc(Cl)c4)NC(=O)c4c[nH]c5c(-c6c(OCC7CC7)ccc7c6OCO7)ncnc45)CC3)C(=O)[C@@H]3CCCC[C@H]23)cc1OC` [Example 30, N-[(2R)-3-(3-chlorophenyl)-1-{4-[(4aS,8aR)-4-(3,4-dimethoxyphenyl)-1-oxo-4a,5,6,7,8,8a-hexahydrophthalazin-2(1H)-yl]piperidin-1-yl}-1-oxopropan-2-yl]-4-[5-(cyclopropylmethoxy)-1,3-benzodioxol-4-yl]-5H-pyrrolo[3,2-d]pyrimidine-7-carboxamide]: the IC50 on PDE4B1 and at human PDE5 was 1 to 10 nM in each case.

As for `COc1ccc(C2=NN(C3CCN(C(=O)[C@@H](Cc4ccccc4)NC(=O)c4c[nH]c5c(-c6c(OCC7CC7)ccc7c6OCO7)ncnc45)CC3)C(=O)[C@@H]3CCCC[C@H]23)cc1OC` [Example 31, 4-[5-(cyclopropylmethoxy)-1,3-benzodioxol-4-yl]-N-[(2R)-1-{4-[(4aS,8aR)-4-(3,4-dimethoxyphenyl)-1-oxo-4a,5,6,7,8,8a-hexahydrophthalazin-2(1H)-yl]piperidin-1-yl}-1-oxo-3-phenylpropan-2-yl]-5H-pyrrolo[3,2-d]pyrimidine-7-carboxamide], the IC50 on PDE4B1 was 1 to 10 nM; on human PDE5, less than 1 nM.

Take `COc1ccc(C2=NN(C3CCN(C(=O)[C@@H](Cc4ccccc4C(F)(F)F)NC(=O)c4c(C)[nH]c5c(-c6c(OCC7CC7)ccc7c6OCO7)ncnc45)CC3)C(=O)[C@@H]3CCCC[C@H]23)cc1OC` [Example 32, 4-[5-(cyclopropylmethoxy)-1,3-benzodioxol-4-yl]-N-{(2R)-1-{4-[(4aS,8aR)-4-(3,4-dimethoxyphenyl)-1-oxo-4a,5,6,7,8,8a-hexahydrophthalazin-2(1H)-yl]piperidin-1-yl}-1-oxo-3-[2-(trifluoromethyl)phenyl]propan-2-yl}-6-methyl-5H-pyrrolo[3,2-d]pyrimidine-7-carboxamide]: the IC50 at PDE4B1 and on human PDE5 was 1 to 10 nM each time.

As to `COc1ccc(C2=NN(C3CCN(C(=O)[C@@H](Cc4ccccc4C(F)(F)F)NC(=O)c4c[nH]c5c(-c6c(OCC7CC7)ccc7c6OCO7)ncnc45)CC3)C(=O)[C@@H]3CCCC[C@H]23)cc1OC` [Example 33, 4-[5-(cyclopropylmethoxy)-1,3-benzodioxol-4-yl]-N-{(2R)-1-{4-[(4aS,8aR)-4-(3,4-dimethoxyphenyl)-1-oxo-4a,5,6,7,8,8a-hexahydrophthalazin-2(1H)-yl]piperidin-1-yl}-1-oxo-3-[2-(trifluoromethyl)phenyl]propan-2-yl}-5H-pyrrolo[3,2-d]pyrimidine-7-carboxamide], the IC50 at PDE4B1 was 1 to 10 nM; on human PDE5, less than 1 nM.

Values taken from patent publication US20160108049A1 (TAKEDA Gmbh, priority 2011, published 2016).
